In patent US20140309210A1, “INDAZOLE COMPOUNDS, COMPOSITIONS AND METHODS OF USE THEREOF” (Genentech, Inc., priority 2011, published 2014):

Target: T1, purified ITK (Invitrogen PV3875) (Homo sapiens, UniProt Q08881)
T1 construct: purchased Invitrogen PV3875
T1 sequence (Q08881 1-620): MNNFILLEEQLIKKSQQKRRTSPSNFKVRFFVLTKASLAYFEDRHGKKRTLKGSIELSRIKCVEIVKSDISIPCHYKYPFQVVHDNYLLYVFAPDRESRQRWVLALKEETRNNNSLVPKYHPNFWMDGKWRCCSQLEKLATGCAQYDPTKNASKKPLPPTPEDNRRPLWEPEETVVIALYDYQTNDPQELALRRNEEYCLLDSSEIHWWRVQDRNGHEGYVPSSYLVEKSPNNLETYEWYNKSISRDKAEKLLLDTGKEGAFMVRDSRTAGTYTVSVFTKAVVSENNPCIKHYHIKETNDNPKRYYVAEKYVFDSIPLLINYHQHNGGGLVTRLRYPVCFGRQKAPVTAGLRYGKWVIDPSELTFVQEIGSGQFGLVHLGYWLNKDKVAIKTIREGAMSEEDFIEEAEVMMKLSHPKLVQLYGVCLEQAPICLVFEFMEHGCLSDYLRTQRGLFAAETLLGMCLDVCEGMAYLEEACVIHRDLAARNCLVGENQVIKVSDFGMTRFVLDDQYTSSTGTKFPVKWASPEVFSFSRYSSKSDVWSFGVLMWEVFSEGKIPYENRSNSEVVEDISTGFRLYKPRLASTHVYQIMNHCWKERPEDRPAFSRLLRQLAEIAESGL
Experiment: ITK peptide phosphorylation assay (Caliper LabChip or LCMS)
Type: biochemical
Conditions: Table 1, Examples 141-279
How it was run: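 Purified human ITK peptide phosphorylation, quenched with EDTA (50 mM final) for Caliper LabChip separation or TCA (5% v/v final) for UPLC-MS/MS MRM quantification. Ki derived via Morrison tight-binding equation, corrected for competitive inhibition using ATP concentration relative to Km,app.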

Row | Ki [µM] | SMILES
1 | 0.00481 | N#CCCn1cc(NC(=O)c2n[nH]c3cc(-c4cn[nH]c4)ccc23)cn1 [Example 261, N-[1-(2-cyanoethyl)py-razol-4-yl]-6-(1H-pyrazol-4-yl)-1H-indazole-3-carboxamide]
2 | 0.00469 | O=C(Nc1cnn(CC2CNC2)c1)c1n[nH]c2cc(-c3cn[nH]c3)ccc12 [Example 262, N-[1-(azetidin-3-ylmethyl)pyrazol-4-yl]-6-(1H-pyrazol-4-yl)-1H-indazole-3-carboxamide]
3 | 0.00514 | CNCCC(c1ccccc1)n1cc(NC(=O)c2n[nH]c3ccccc23)cn1 (stereo not shown) [Example 263, N-[1-[3-(methylamino)-1-phenyl-propyl]pyrazol-4-yl]-1H-indazole-3-carboxamide]
4 | 0.0555 | CNCCC(c1ccccc1)n1cc(NC(=O)c2n[nH]c3ccccc23)cn1 (stereo not shown) [Example 264, N-[1-[3-(methylamino)-1-phenyl-propyl]pyrazol-4-yl]-1H-indazole-3-carboxamide]
5 | 0.0238 | CC(=O)N(C)CCC(c1ccccc1)n1cc(NC(=O)c2n[nH]c3ccccc23)cn1 (stereo not shown) [Example 265, N-[1-[3-[acetyl(meth-yl)amino]-1-phenyl-propyl]pyrazol-4-yl]-1H-indazole-3-carboxamide]
6 | 0.1 | CC(=O)N(C)CCC(c1ccccc1)n1cc(NC(=O)c2n[nH]c3ccccc23)cn1 (stereo not shown) [Example 266, N-[1-[3-[acetyl(methyl)a-mino]-1-phenyl-propyl]pyrazol-4-yl]-1H-indazole-3-carboxamide]
7 | 0.0769 | CN(C)CCC(c1ccccc1)n1cc(NC(=O)c2n[nH]c3ccccc23)cn1 (stereo not shown) [Example 267, N-[1-[3-(dimethylamino)-1-phenyl-propyl]pyrazol-4-yl]-1H-indazole-3-carboxamide]
8 | 0.00598 | CN(C)CCC(c1ccccc1)n1cc(NC(=O)c2n[nH]c3ccccc23)cn1 (stereo not shown) [Example 268, N-[1-[3-(dimethylamino)-1-phenyl-propyl]pyrazol-4-yl]-1H-indazole-3-carboxamide]
9 | 0.105 | CN(CCC(c1ccccc1)n1cc(NC(=O)c2n[nH]c3ccccc23)cn1)CC(F)(F)F (stereo not shown) [Example 269, N-[1-[3-[methyl(2,2,2-trifluoroethyl)a-mino]-1-phenyl-propyl]pyrazol-4-yl]-1H-indazole-3-carboxamide]
10 | 0.00892 | CN(CCC(c1ccccc1)n1cc(NC(=O)c2n[nH]c3ccccc23)cn1)CC(F)(F)F (stereo not shown) [Example 270, N-[1-[3-[methyl(2,2,2-trifluoroethyl)a-mino]-1-phenyl-propyl]pyrazol-4-yl]-1H-indazole-3-carboxamide]
11 | 0.00692 | CN(CCC(c1ccccc1)n1cc(NC(=O)c2n[nH]c3ccccc23)cn1)S(C)(=O)=O (stereo not shown) [Example 271]
12 | 0.0416 | CN(CCC(c1ccccc1)n1cc(NC(=O)c2n[nH]c3ccccc23)cn1)S(C)(=O)=O (stereo not shown) [Example 272, N-[1-[3-[methyl(methyl-sulfonyl)amino]-1-phenyl-propyl]pyrazol-4-yl]-1H-indazole-3-carboxamide]
13 | 0.0083 | CN(CCC(c1ccccc1)n1cc(NC(=O)c2n[nH]c3ccccc23)cn1)CC(F)F (stereo not shown) [Example 273, N-[1-[3-[2,2-difluoroethyl(meth-yl)amino]-1-phenyl-propyl]pyrazol-4-yl]-1H-indazole-3-carboxamide]
14 | 0.0848 | CN(CCC(c1ccccc1)n1cc(NC(=O)c2n[nH]c3ccccc23)cn1)CC(F)F (stereo not shown) [Example 274, N-[1-[3-[2,2-difluoroethyl(meth-yl)amino]-1-phenyl-propyl]pyrazol-4-yl]-1H-indazole-3-carboxamide]
15 | 0.00783 | CN(C)CC(c1ccccc1)n1cc(NC(=O)c2n[nH]c3ccccc23)cn1 (stereo not shown) [Example 275, N-[1-[2-(dimethylamino)-1-phenyl-ethyl]pyrazol-4-yl]-1H-indazole-3-carboxamide]
16 | 0.152 | CN(C)CC(c1ccccc1)n1cc(NC(=O)c2n[nH]c3ccccc23)cn1 (stereo not shown) [Example 276, N-[1-[2-(dimethylamino)-1-phenyl-ethyl]pyrazol-4-yl]-1H-indazole-3-carboxamide]
